Experimental data: US20200239420A1, “MODULATORS OF INDOLEAMINE 2,3-DIOXYGENASE” (GLAXOSMITHKLINE INTELLECTUAL PROPERTY DEVELOPMENT LIMITED, priority 2017, published 2020)

How the values were obtained:
[1] = biological target: T1, indoleamine 2, 3-dioxygenase (IDO1) (Homo sapiens, UniProt P14902); assay: IDO1 PBMC RapidFire MS assay (kynurenine detection); format: cell-based; settings: IFN-γ/LPS-stimulated human PBMC, 2 days, kynurenine by mass spectrometry; read-out: PBMC pIC50 (converted)
T1 construct: to induce the expression of indoleamine 2, 3-dioxygenase (IDO1); host or cells: human PBMC stimulated with IFN-gamma and LPS
T1 sequence (P14902 whole entry): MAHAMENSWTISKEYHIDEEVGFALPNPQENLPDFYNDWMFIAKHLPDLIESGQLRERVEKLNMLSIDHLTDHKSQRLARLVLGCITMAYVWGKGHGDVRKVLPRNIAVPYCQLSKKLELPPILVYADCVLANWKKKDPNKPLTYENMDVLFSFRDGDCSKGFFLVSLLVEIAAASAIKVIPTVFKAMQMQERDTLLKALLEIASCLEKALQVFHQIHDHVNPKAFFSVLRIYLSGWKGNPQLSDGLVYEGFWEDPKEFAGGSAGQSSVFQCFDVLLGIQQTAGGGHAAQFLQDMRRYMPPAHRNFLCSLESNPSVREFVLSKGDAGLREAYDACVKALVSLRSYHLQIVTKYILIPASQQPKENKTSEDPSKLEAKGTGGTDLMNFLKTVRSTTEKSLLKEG
Description: (§1) Compounds of the present invention were tested via high-throughput cellular assays utilizing detection of kynurenine via mass spectrometry and cytotoxicity as end-points. For the mass spectrometry and cytotoxicity assays, human peripheral blood mononuclear cells (PBMC) (PB003F; AllCells®, Alameda, Calif.) were stimulated with human interferon-γ (IFN-γ) (Sigma-Aldrich Corporation, St. Louis, Mo.) and lipopolysaccharide from Salmonella minnesota (LPS) (Invivogen, San Diego, Calif.) to induce the expression of indoleamine 2, 3-dioxygenase (IDO1). Compounds with IDO1 inhibitory properties decreased the amount of kynurenine produced by the cells via the tryptophan catabolic pathway. Cellular toxicity due to the effect of compound treatment was measured using CellTiter-Glo® reagent (CTG) (Promega Corporation, Madison, Wis.), which is based on luminescent detection of ATP, an indicator of metabolically active cells.
(§2) In preparation for the assays, test compounds were serially diluted 3-fold in DMSO from a typical top concentration of 1 mM or 5 mM and plated at 0.5 μL in 384-well, polystyrene, clear bottom, tissue culture treated plates with lids (Greiner Bio-One, Kremsmünster, Austria) to generate 11-point dose response curves. Low control wells (0% kynurenine or 100% cytotoxicity) contained either 0.5 μL of DMSO in the presence of unstimulated (−IFN-γ/−LPS) PBMCs for the mass spectrometry assay or 0.5 μL of DMSO in the absence of cells for the cytotoxicity assay, and high control wells (100% kynurenine or 0% cytotoxicity) contained 0.5 μL of DMSO in the presence of stimulated (+IFN-γ/+LPS) PBMCs for both the mass spectrometry and cytotoxicity assays.
(§3) Frozen stocks of PBMCs were washed and recovered in RPMI 1640 medium (Thermo Fisher Scientific, Inc., Waltham, Mass.) supplemented with 10% v/v heat-inactivated fetal bovine serum (FBS) (Thermo Fisher Scientific, Inc., Waltham, Mass.), and 1× penicillin-streptomyci antibiotic solution (Thermo Fisher Scientific, Inc., Waltham, Mass.). The cells were diluted to 1,000,000 cells/mL in the supplemented RPMI 1640 medium. 50 μL of either the cell suspension, for the mass spectrometry assay, or medium alone, for the cytotoxicity assay, were added to the low control wells, on the previously prepared 384-well compound plates, resulting in 50,000 cells/well or 0 cells/well respectively. IFN-γ and LPS were added to the remaining cell suspension at final concentrations of 100 ng/ml and 50 ng/ml respectively, and 50 μL of the stimulated cells were added to all remaining wells on the 384-well compound plates. The plates, with lids, were then placed in a 37 °C, 5% CO2 humidified incubator for 2 days.
(§4) Following incubation, the 384-well plates were removed from the incubator and allowed to equilibrate to room temperature for 30 minutes. For the cytotoxicity assay, CellTiter-Glo® was prepared according to the manufacturer's instructions, and 40 μL were added to each plate well. After a twenty-minute incubation at room temperature, luminescence was read on an EnVision® Multilabel Reader (PerkinElmer Inc., Waltham, Mass.). For the mass spectrometry assay, 10 μL of supernatant from each well of the compound-treated plates were added to 40 μL of acetonitrile, containing 10 μM of an internal standard for normalization, in 384-well, polypropylene, V-bottom plates (Greiner Bio-One, Kremsmünster, Austria) to extract the organic analytes. Following centrifugation at 2000 rpm for 10 minutes, 10 μL from each well of the acetonitrile extraction plates were added to 90 μL of sterile, distilled H2O in 384-well, polypropylene, V-bottom plates for analysis of kynurenine and the internal standard on the RapidFire 300 (Agilent Technologies, Santa Clara, Calif.) and 4000 QTRAP MS (SCIEX, Framingham, Mass.). MS data were integrated using Agilent Technologies' RapidFire Integrator software, and data were normalized for analysis as a ratio of kynurenine to the internal standard. […]

Rat PK = format: in vivo; settings: male Han Wistar rats, n = 3
[2] = system: human peripheral blood mononuclear cells (PBMC); assay: PBMC cytotoxicity assay (CellTiter-Glo); format: cell-based; settings: 48 h; IFN-γ/LPS-stimulated human PBMC, 2 days, CellTiter-Glo cytotoxicity (pCC50); read-out: PBMC TOX pIC50 (converted)
Description: as §1, §2, §3, §4

IC50 [1] | AUC(0-inf) (Rat PK; rat, in vivo, PO, 3 mg/kg) | AUC(0-t) (Rat PK; rat, in vivo, PO, 3 mg/kg) | Cmax (Rat PK; rat, in vivo, PO, 3 mg/kg) | Tmax (Rat PK; rat, in vivo, PO, 3 mg/kg) | half-life (Rat PK; rat, in vivo, PO, 3 mg/kg) | Compound | IC50 [2] | also measured
63.1 nM | – | – | – | – | – | O=C(CC1CC2(CCC(c3ccnc4ccccc34)CC2)C1)Nc1ccc(Cl)cc1 (centres unmarked) [Example 5, N-(4-chlorophenyl)-2-(7-(quinolin-4-yl)spiro[3.5]nonan-2-yl)acetamide] | > 10000 nM | –
79.4 nM | – | – | – | – | – | O=C(NC1CC2(CCC(c3ccnc4ccccc34)CC2)C1)c1ccc(Cl)cc1 (centres unmarked) [Example 3, 4-chloro-N-(7-(quinolin-4-yl)spiro[3.5]nonan-2-yl)benzamide] | > 10000 nM | –

Continued, compound first:

Compound | IC50 [1] | AUC(0-inf) (Rat PK; rat, in vivo, PO, 3 mg/kg) | AUC(0-t) (Rat PK; rat, in vivo, PO, 3 mg/kg) | Cmax (Rat PK; rat, in vivo, PO, 3 mg/kg) | Tmax (Rat PK; rat, in vivo, PO, 3 mg/kg) | half-life (Rat PK; rat, in vivo, PO, 3 mg/kg) | IC50 [2] | also measured
O=C(Nc1ccc(Cl)cc1)[C@@H]1C[C@]12CC[C@H](c1ccnc3ccccc31)CC2 (relative stereo) [Example 1, cis-N-(4-chlorophenyl)-6-(quinolin-4-yl)spiro[2.5]octane-1-carboxamide] | 63.1 nM | 14000 ng·h/mL | 12300 ng·h/mL | 1000 ng/mL | 1 h | 7.16 h | > 10000 nM | F (Rat PK; PO, 3 mg/kg): 60.2%; AUC(0-inf) (Rat PK; rat, in vivo, IV, 1 mg/kg): 4660 ng·h/mL; AUC(0-t) (Rat PK; rat, in vivo, IV, 1 mg/kg): 4450 ng·h/mL; MRT inf (Rat PK; rat, in vivo, IV, 1 mg/kg): 7.35 h; clearance (Rat PK; rat, in vivo, IV, 1 mg/kg): 3.58 mL/min/kg; half-life (Rat PK; rat, in vivo, IV, 1 mg/kg): 5.36 h; Vd (Rat PK; rat, in vivo, IV, 1 mg/kg, read-out: Vss): 1.58 L/kg
O=C(NC1CC2(CCC(c3ccnc4ccccc34)CC2)C1)c1ccc(Cl)s1 (centres unmarked) [Example 4, 5-chloro-N-(7-(quinolin-4-yl)spiro[3.5]nonan-2-yl)thiophene-2-carboxamide] | 20 nM | 15500 ng·h/mL | 14400 ng·h/mL | 1140 ng/mL | 3 h | 5.89 h | > 10000 nM | –
O=C(Nc1ccc(Cl)cc1)[C@@H]1C[C@]12CC[C@@H](c1ccnc3ccccc31)CC2 (relative stereo) [Example 2, trans-N-(4-chlorophenyl)-6-(quinolin-4-yl)spiro[2.5]octane-1-carboxamide] | 126 nM | – | – | – | – | – | > 10000 nM | –
O=C(Nc1ccc(Cl)cc1)C1CC2(CCC(c3ccnc4ccc(F)cc34)CC2)C1 (centres unmarked) [Example 6, N-(4-chlorophenyl)-7-(6-fluoroquinolin-4-yl)spiro[3.5]nonane-2-carboxamide] | 15.8 nM | – | – | – | – | – | > 10000 nM | –
